Target: T1, UGT1A9 (Homo sapiens, UniProt O60656)
T1 sequence (O60656 26-530): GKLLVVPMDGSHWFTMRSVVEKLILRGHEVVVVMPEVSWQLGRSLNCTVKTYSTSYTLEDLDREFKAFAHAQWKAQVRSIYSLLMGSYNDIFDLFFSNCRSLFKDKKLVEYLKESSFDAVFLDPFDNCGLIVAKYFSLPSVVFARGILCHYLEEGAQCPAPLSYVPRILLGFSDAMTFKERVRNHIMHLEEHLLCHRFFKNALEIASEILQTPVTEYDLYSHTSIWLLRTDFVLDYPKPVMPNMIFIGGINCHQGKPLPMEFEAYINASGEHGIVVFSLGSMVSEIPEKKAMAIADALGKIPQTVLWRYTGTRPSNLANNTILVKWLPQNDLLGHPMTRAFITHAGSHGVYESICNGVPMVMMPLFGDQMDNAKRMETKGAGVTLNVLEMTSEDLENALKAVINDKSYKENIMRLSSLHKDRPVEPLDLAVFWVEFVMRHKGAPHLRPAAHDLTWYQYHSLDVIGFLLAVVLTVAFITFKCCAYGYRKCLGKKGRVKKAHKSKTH
Assay: Kinetic profiling of glucuronidation by expressed human UGT1A9
Conditions: human, expressed human UGT1A9 (Supersomes), pH 7.4

`O=C1C[C@@H](c2ccc(O)cc2)Oc2cc(O)cc(O)c21` [compound 27, Narigenin] was tested, and the Km was 3.34 µM.

Same assay, conditions: log of experimental CLint (μl/mg/min)

Going from `COc1ccc(-c2oc3cc(OC)ccc3c(=O)c2O)cc1` [compound 79, 3-Hydroxy-7,4′-dimethoxyflavone] to `O=c1cc(-c2ccccc2O)oc2cc(O)ccc12` [compound 42, 7,2′-Dihydroxyflavone], the “Log (CLint) (Actual)” value falls from 4.66 to 2.77.

First: O=c1cc(-c2ccccc2)oc2cc(O)ccc12 [compound 49, 7-Hydroxyflavone]
Second: O=c1cc(-c2ccccc2O)oc2cc(O)cc(O)c12 [compound 40, 5,7,2′-Trihydroxyflavone]
The “Log (CLint) (Actual)” value of the first is lower: 3.13 for the first, 3.57 for the second.

First: COc1cc(/C=C/C(=O)CC(=O)/C=C/c2ccc(O)c(OC)c2)ccc1O [compound 15, Curcumin]
Second: COc1cc2ccc(=O)oc2cc1O [compound 14, Scopoletin]
The “Log (CLint) (Actual)” value of the first is lower: 1.74 for the first, 2.28 for the second.

First: O=c1cc(-c2ccc(O)c(O)c2)oc2cc(O)ccc12 [41.a, 7,3′,4′-Trihydroxyflavone]
Second: COc1ccc(/C=C\c2cc(OC)c(OC)c(OC)c2)cc1O [compound 136, Combretastatin A4]
The “Log (CLint) (Actual)” value of the first is lower: 3.08 for the first, 3.33 for the second.

Going from `COc1cc(-c2oc3cc(O)cc(O)c3c(=O)c2O)cc(OC)c1O` [94.a, Syringetin] to `Oc1ccc(-c2ccccc2)cc1` [compound 123, 4-Phenylphenol], the “Log (CLint) (Actual)” value falls from 3.87 to 1.34.

Going from `O=c1c(O)c(-c2ccccc2)oc2cc(O)ccc12` [68.a, 3,7-Dihydroxyflavone] to `COc1cc(/C=C/c2ccc(O)cc2)cc(OC)c1` [compound 137, Pterostilbene], the “Log (CLint) (Actual)” value falls from 4.32 to 0.05.

Compared with `O=c1cc(-c2cccc(O)c2)oc2cc(O)ccc12` [compound 43, 7,3′-Dihydroxyflavone], `O=c1c(O)c(-c2cccc(O)c2)oc2ccccc12` [compound 60, 3,3′-Dihydroxyflavone] is higher in “Log (CLint) (Actual)” value: 2.74 for the first, 4.44 for the second.

First: O=c1c(O)c(-c2ccc(O)cc2)oc2cc(O)cc(O)c12 [88.a, Kaempferol]
Second: COc1cc(OC)c2c(=O)c(O)c(-c3ccccc3)oc2c1 [compound 75, 3-Hydroxy-5,7-dimethoxyflavone]
The “Log (CLint) (Actual)” value of the first is lower: 3.78 for the first, 4.40 for the second.

Compared with `O=c1c(O)c(-c2ccc(O)cc2)oc2cc(O)ccc12` [92.a, Resokaempferol], `O=c1cc(-c2ccccc2)oc2ccc(O)cc12` [compound 38, 6-Hydroxyflavone] is lower in “Log (CLint) (Actual)” value: 3.86 for the first, 1.53 for the second.

First: Oc1ccc(/C=C/c2cc(O)cc(O)c2)cc1 [compound 138, Resveratrol]
Second: COc1ccc(-c2oc3ccc(OC)cc3c(=O)c2O)cc1 [compound 77, 3-Hydroxy-6,4′-dimethoxyflavone]
The “Log (CLint) (Actual)” value of the first is lower: 1.8 for the first, 4.71 for the second.

Going from `Cc1ccc(C(=O)c2cc(O)c(O)c([N+](=O)[O-])c2)cc1` [compound 145, Tolcapone, reference compound] to `O=C1OC[C@H](Cc2cccc(O)c2)[C@H]1Cc1cccc(O)c1` [compound 20, Enterolactone], the “Log (CLint) (Actual)” value falls from 2.62 to 1.96.

Compared with `Oc1ccc(Cl)cc1` [compound 111, 4-Chlorophenol], `O=c1c(O)c(-c2ccccc2)oc2cccc(O)c12` [compound 61, 3,5-Dihydroxyflavone] is higher in “Log (CLint) (Actual)” value: 1.98 for the first, 3.87 for the second.

First: Oc1ccc(F)cc1 [compound 115, 4-Fluorophenol]
Second: COc1cc(O)c2c(=O)c(-c3ccc(O)cc3)coc2c1 [compound 108, Prunetin]
The “Log (CLint) (Actual)” value of the first is lower: 1.18 for the first, 2.25 for the second.

Going from `O=C(/C=C/c1ccc(O)cc1)c1ccccc1` [compound 4, 4-Hydroxychalcone] to `Oc1ccc([C@H]2COc3cc(O)ccc3C2)cc1` [compound 103, Equol], the “Log (CLint) (Actual)” value falls from 1.53 to 0.57.

First: O=c1ccoc2cc(O)ccc12 [compound 8, 7-Hydroxychromone]
Second: O=c1cc(-c2ccc(O)cc2)oc2ccccc12 [compound 32, 4′-Hydroxyflavone]
The “Log (CLint) (Actual)” value of the first is lower: 0.91 for the first, 1.83 for the second.

Compared with `O=C(/C=C/c1ccc(O)cc1)CC(=O)/C=C/c1ccc(O)cc1` [compound 17, Bisdemethoxycurcumin], `COc1cc(/C=C/C(O)=C/C(=O)/C=C/c2ccc(O)cc2)ccc1O` [compound 16, Demethoxycurcumin] is higher in “Log (CLint) (Actual)” value: 0.90 for the first, 1.14 for the second.

Compared with `CCCOc1ccc(O)cc1` [compound 125, 4-Propoxyphenol], `CC(=O)CC(c1ccccc1)c1c(O)c2cccc(O)c2oc1=O` (centres unmarked) [compound 13, 8-Hydroxywarfarin] is higher in “Log (CLint) (Actual)” value: 1.00 for the first, 1.40 for the second.

`COc1ccc2oc(-c3ccccc3)c(O)c(=O)c2c1` [compound 78, 3-Hydroxy-6-methoxyflavone] and `Cc1ccc2oc(-c3ccccc3)c(O)c(=O)c2c1` [compound 66, 3-Hydroxy-6-methylflavone] are within 0.2 log units of each other in “Log (CLint) (Actual)” value: 4.86 for the first, 5.04 for the second.

`COc1ccc(-c2oc3ccccc3c(=O)c2O)cc1` [compound 74, 3-Hydroxy-4′-methoxyflavone] and `COc1ccc2c(=O)c(O)c(-c3ccccc3)oc2c1` [compound 80, 3-Hydroxy-7-methoxyflavone] are within 0.2 log units of each other in “Log (CLint) (Actual)” value: 4.51 for the first, 4.57 for the second.

Compared with `O=c1cc(-c2cccc(O)c2)oc2ccccc12` [compound 31, 3′-Hydroxyflavone], `COc1cccc2oc(-c3ccccc3)c(O)c(=O)c12` [compound 76, 3-Hydroxy-5-methoxyflavone] is higher in “Log (CLint) (Actual)” value: 2.66 for the first, 4.36 for the second.

Going from `Cc1ccc2oc(=O)cc(O)c2c1` [compound 11, 4-Hydroxy-6-methylcoumarin] to `CCOc1ccc(O)cc1` [compound 113, 4-Ethoxyphenol], the “Log (CLint) (Actual)” value rises from 0.59 to 0.92.

Compared with `O=C(/C=C/c1ccccc1O)c1ccccc1` [compound 3, 2-Hydroxychalcone], `O=C1C[C@@H](c2ccc(O)cc2)Oc2cc(O)cc(O)c21` [compound 27, Narigenin] is lower in “Log (CLint) (Actual)” value: 3.38 for the first, 3.18 for the second.

Compared with `COc1cc(O)c2c(=O)c(O)c(-c3ccc(O)c(O)c3)oc2c1` [compound 93, Rhamnetin], `O=c1cc(-c2ccc(O)c(O)c2)oc2cc(O)cc(O)c12` [56.a, Luteolin] is lower in “Log (CLint) (Actual)” value: 4.65 for the first, 3.58 for the second.

Compared with `COc1cccc(-c2oc3ccccc3c(=O)c2O)c1` [compound 73, 3-Hydroxy-3′-methoxyflavone], `O=c1c(O)c(-c2cc(O)c(O)c(O)c2)oc2cc(O)cc(O)c12` [90.a, Myricetin] is lower in “Log (CLint) (Actual)” value: 4.66 for the first, 2.90 for the second.

Going from `Cc1c(-c2ccccc2)oc2cc(O)ccc2c1=O` [compound 45, 7-Hydroxy-3-methylflavone] to `COc1ccc(O)cc1` [compound 118, 4-Methoxyphenol], the “Log (CLint) (Actual)” value falls from 3.30 to 1.18.

Going from `CC(=O)c1ccc(O)cc1` [compound 121, 4-Hydroxyacetophenone] to `COc1cc(-c2cc(=O)c3c(O)cc(O)cc3o2)cc(OC)c1OC` [compound 33, 5,7-Dihydroxy-3′,4′,5′-trimethoxyflavone], the “Log (CLint) (Actual)” value rises from 1.15 to 2.93.

Compared with `COc1cc(-c2oc3cc(O)ccc3c(=O)c2O)ccc1O` [compound 86, Geraldol], `CCCc1ccc(O)cc1` [compound 126, 4-n-Propylphenol] is lower in “Log (CLint) (Actual)” value: 3.60 for the first, 1.62 for the second.

Compared with `O=C(CCc1ccc(O)cc1)c1c(O)cc(O)cc1O` [7.a, Phloretin], `O=C(c1ccc(OCCN2CCCCC2)cc1)c1c(-c2ccc(O)cc2)sc2cc(O)ccc12` [compound 22, Raloxifene, reference compound] is lower in “Log (CLint) (Actual)” value: 2.87 for the first, 1.31 for the second.

Going from `O=C1[C@H](CC[C@H](O)c2ccc(F)cc2)[C@@H](c2ccc(O)cc2)N1c1ccc(F)cc1` [compound 141, Ezetimibe, reference compound] to `O=c1c(O)c(-c2ccc(O)cc2)oc2ccc(O)cc12` [compound 62, 3,6,4′-Trihydroxyflavone], the “Log (CLint) (Actual)” value rises from −0.56 to 4.34.

`O=c1oc2cc(O)ccc2c(-c2ccccc2)c1-c1ccccc1` [compound 9, 3,4-Diphenyl-7-hydroxycoumarin] and `CCCCOC(=O)c1ccc(O)cc1` [compound 129, Butyl-4-hydroxybenzoate] are within 0.2 log units of each other in “Log (CLint) (Actual)” value: 1.61 for the first, 1.51 for the second.

(−)-Epigallocatechingallate [1.a] was tested, and the “Log (CLint) (Actual)” value was 2.20.

Same assay, conditions: log of experimental CLint (μl/mg/min); listed as 1.b

In the case of (−)-Epigallocatechingallate [1.a], the “Log (CLint) (Actual)” value is reported as 2.81.

Same assay, conditions: log of experimental CLint (μl/mg/min); listed as 7.b

In the case of `O=C(CCc1ccc(O)cc1)c1c(O)cc(O)cc1O` [7.a, Phloretin], the “Log (CLint) (Actual)” value is reported as 3.17.

Same assay, conditions: log of experimental CLint (μl/mg/min); listed as 41.b

For `O=c1cc(-c2ccc(O)c(O)c2)oc2cc(O)ccc12` [41.a, 7,3′,4′-Trihydroxyflavone], the “Log (CLint) (Actual)” value was 2.48.

Same assay, conditions: log of experimental CLint (μl/mg/min); listed as 41.c

With `O=c1cc(-c2ccc(O)c(O)c2)oc2cc(O)ccc12` [41.a, 7,3′,4′-Trihydroxyflavone] the “Log (CLint) (Actual)” value was 2.11.

Same assay, conditions: log of experimental CLint (μl/mg/min); listed as 56.b

In the case of `O=c1cc(-c2ccc(O)c(O)c2)oc2cc(O)cc(O)c12` [56.a, Luteolin], the “Log (CLint) (Actual)” value is reported as 3.32.

Same assay, conditions: log of experimental CLint (μl/mg/min); listed as 68.b

For `O=c1c(O)c(-c2ccccc2)oc2cc(O)ccc12` [68.a, 3,7-Dihydroxyflavone], the “Log (CLint) (Actual)” value was 3.13.

Same assay, conditions: log of experimental CLint (μl/mg/min); listed as 69.b

With `COc1ccc(-c2oc3cc(O)ccc3c(=O)c2O)cc1OC` [69.a, 3,7-Dihydroxy-3′,4′-dimethoxyflavone] the “Log (CLint) (Actual)” value was 1.00.

Same assay, conditions: log of experimental CLint (μl/mg/min); listed as 88.b

With `O=c1c(O)c(-c2ccc(O)cc2)oc2cc(O)cc(O)c12` [88.a, Kaempferol] the “Log (CLint) (Actual)” value was 2.34.

Same assay, conditions: log of experimental CLint (μl/mg/min); listed as 90.b

In the case of `O=c1c(O)c(-c2cc(O)c(O)c(O)c2)oc2cc(O)cc(O)c12` [90.a, Myricetin], the “Log (CLint) (Actual)” value is reported as 3.36.

Same assay, conditions: log of experimental CLint (μl/mg/min); listed as 90.c

In the case of `O=c1c(O)c(-c2cc(O)c(O)c(O)c2)oc2cc(O)cc(O)c12` [90.a, Myricetin], the “Log (CLint) (Actual)” value is reported as 3.69.

Same assay, conditions: log of experimental CLint (μl/mg/min); listed as 92.b

For `O=c1c(O)c(-c2ccc(O)cc2)oc2cc(O)ccc12` [92.a, Resokaempferol], the “Log (CLint) (Actual)” value was 2.63.

Same assay, conditions: log of experimental CLint (μl/mg/min); listed as 94.b

In the case of `COc1cc(-c2oc3cc(O)cc(O)c3c(=O)c2O)cc(OC)c1O` [94.a, Syringetin], the “Log (CLint) (Actual)” value is reported as 2.26.

Reference: article PMC3409642 (Pharmaceutical research, 2012)
